Experimental data: patent US20100119609A1, “METHODS, COMPOSITIONS, AND FORMULATIONS FOR THE TREATMENT OF THYROID EYE DISEASE” (priority 2006, published 2010)

Key:
[1] = compared with albuterol 5, a short acting hydrophilic beta agonist; cited from earlier work
[2] = system: cultured human adipocytes; test: In vitro lipolysis assay (glycerol release) in cultured adipocytes; type: cell-based; conditions: for increase in lipolysis relative to negative control: glycerol in Assay Buffer
Description: In the in vitro lipolysis assay, glycerol was detected in cell culture media via a spectrophotometric measurement after chemical oxidation with hydrogen peroxide. Glycerol was measured over a three hour time period. Levels of lipolysis in cultured human adipocytes were tested after exposure to a beta agonist alone, a glucocorticosteroid alone, or the combination of the two for one or more preincubation periods as described in more detail below.
Human subcutaneous adipocytes were used in the lipolysis assay. Adipose tissue was harvested from liposuction or lipectomy and pre-adipocytes were isolated as follows. Briefly, fat tissue was minced and incubated at 37° C. in Krebs-Ringer bicarbonate buffer containing 1% bovine serum albumin and 0.1% collagenase in an oxygen-rich shaking chamber (5% CO2; 75 strokes/min) for 1 hour. The suspension was filtered through a 400 tim nylon mesh and centrifuged for 1 mm at 100 g. The pre-adipocytes in the […] were washed twice with and then plated in 96 well plates at a density of cells/well. The pre-adipocytes were cultured in maintenance medium for seven days as they differentiated into adipocytes.
At −21 hours before the lipolysis assay, medium was removed from each well and replaced with 75 μl of Maintenance Medium containing appropriate drug or DMSO (vehicle) concentrations (see Experimental Design section below). Each test drug or control treatment was applied to 8 wells/group (12 treatment groups per 96-well plate). At −3 hours prior to the lipolysis assay, each well was washed two times with Wash Buffer (200 μl/wash), filled with test or control solutions made up in Assay Buffer (75 μl/well), and then incubated for three hours, i.e., until measurement of glycerol content in the Assay Buffer. For some groups, a drug was only added for the three hour incubation period (see Experimental and Control Groups Below).
The glycerol content of the Assay Buffer from each well following the incubation was used as an index for lipolysis, where an increase in glycerol indicated lipolysis. Glycerol levels were assayed colorimetrically via a commercial glycerol assay kit (Randox Laboratory, United Kingdom) and quantified by comparison to a glycerol serial dilution standard curve (3 μM-200 μM). Glycerol concentrations for each well were normalized to cell density.
In each of the following control or experimental groups n=8 corresponding to the glycerol measurements for 8 wells from a 96-well cell culture plate.

[3] = 18 hour incubation, Salmeterol 10^−6 M or 10^−8 M, Budesonide 10^−6 M, Isoproterenol 10^−6 M
[4] = three hour incubation, isoproterenol 10^−6 M

Molecule | lipophilicity relative to albuterol [1] | effect on lipolysis in cultured adipocytes [2, 3] | increase in lipolysis relative to negative control [2, 4] | effect on lipolysis in cultured adipocytes ([2]; three hour incubation) | lipolysis compared with isoproterenol (positive control) [2, 4]
OCc1cc(C(O)CNCCCCCCOCCCCc2ccccc2)ccc1O (racemic) [Salmeterol, ±2-(hydroxymethyl)-4-[1-hydroxy-2-[6-(4-phenylbutoxy)hexylamino]ethyl]-phenol] | at least 10,000 times | – | – | – | –
CC(C)NCC(O)c1ccc(O)c(O)c1 (stereo not shown) [Isoproterenol, isoproterenol] | – | decreased lipolysis | about 2.5 fold | – | –
budesonide | – | slight suppression of lipolysis | up to 1.5 fold | dose-dependent induction of lipolysis | lower than that observed for Isoproterenol
